Assay results published in patent publication US9840467B2, “Arylhydrazides containing a 2-pyridone moiety as selective antibacterial agents” (ABAC THERAPEUTICS, S.L., priority 2014, dated 2017).
Values after ≈ are worked out from the molar mass of the structure shown. Read-outs that look alike come from different tables or passages of the source.

Legend:
P. aeruginosa = assay: MIC, CLSI microtiter dilution, P. aeruginosa; assay type: cell-based, Pseudomonas aeruginosa; details: Pseudomonas aeruginosa
Experimental: (§1) The products of the present invention were tested for their activity against A. baumannii as well as against the following bacteria: Staphylococcus aureus (S. aureus), Streptococcus pneumoniae (S. pneumoniae), Enterococcus faecium (E. faecium), Pseudomonas aeruginosa (P. aeruginosa), Klebsiella pneumoniae (K. pneumoniae.), Enterobacter aerogenes (E. aerogenes) and Escherichia coli (E. coli).
(§2) Minimal inhibitory concentrations (MICs) were determined using a standard microtiter dilution method, according to the Clinical and Laboratory Standards Institute (CLSI) procedures, in particular according to M07-A9: “Methods for Dilution Antimicrobial Susceptibility Tests for Bacteria That Grow Aerobically; Approved Standard—Ninth Edition”.
(§3) Briefly, compounds were dissolved with dimethyl sulfoxide (DMSO) at 12.8 mg/mL. Serial two-fold dilutions of compounds were performed in DMSO and 1 μl of each dilution were transferred into microtiter culture plates, followed by 100 μl of inoculated culture media to give a final microorganism concentration of 5×10^5 colony-forming units/mL. Plates were incubated at 37° C. for 24 hours and MICs determined as the lowest compound concentration that inhibited growth. Media used in determinations were Cation adjusted Mueller-Hinton Broth for all the microorganisms except for S. pneumoniae and E. faecium whose culture media were supplemented with 2.5% of lysed horse blood. Incubations were performed at air atmosphere except S. pneumoniae cultures that were incubated with 5% CO2 atmosphere.

S. pneumoniae = assay: MIC, CLSI microtiter dilution, S. pneumoniae; assay type: cell-based, Streptococcus pneumoniae; details: Streptococcus pneumoniae
Experimental: as §1, §2, §3

A. baumannii = assay: MIC, CLSI microtiter dilution, A. baumannii; assay type: cell-based, Acinetobacter baumannii; details: Acinetobacter baumannii
Experimental: as §1, §2, §3

K. pneumoniae = assay: MIC, CLSI microtiter dilution, K. pneumoniae; assay type: cell-based, Klebsiella pneumoniae; details: Klebsiella pneumoniae
Experimental: as §1, §2, §3

E. coli = assay: MIC, CLSI microtiter dilution, E. coli; assay type: cell-based, Escherichia coli; details: Escherichia coli
Experimental: as §1, §2, §3

E. faecium = assay: MIC, CLSI microtiter dilution, E. faecium; assay type: cell-based, Enterococcus faecium; details: Enterococcus faecium
Experimental: as §1, §2, §3

E. aerogenes = assay: MIC, CLSI microtiter dilution, E. aerogenes; assay type: cell-based, Enterobacter aerogenes; details: Klebsiella aerogenes
Experimental: as §1, §2, §3

S. aureus = assay: MIC, CLSI microtiter dilution, S. aureus; assay type: cell-based, Staphylococcus aureus; details: Staphylococcus aureus
Experimental: as §1, §2, §3

[1] = P. aeruginosa, 37° C., 24 hours, Cation adjusted Mueller-Hinton Broth, read-out: MIC
[2] = S. pneumoniae, 37° C., 24 hours, 2.5% lysed horse blood, 5% CO2, read-out: MIC
[3] = A. baumannii, 37° C., 24 hours, Cation adjusted Mueller-Hinton Broth, read-out: MIC
[4] = K. pneumoniae, 37° C., 24 hours, Cation adjusted Mueller-Hinton Broth, read-out: MIC
[5] = E. coli, 37° C., 24 hours, Cation adjusted Mueller-Hinton Broth, read-out: MIC
[6] = E. faecium, 37° C., 24 hours, 2.5% lysed horse blood, read-out: MIC
[7] = E. aerogenes, 37° C., 24 hours, Cation adjusted Mueller-Hinton Broth, read-out: MIC
[8] = S. aureus, 37° C., 24 hours, Cation adjusted Mueller-Hinton Broth, read-out: MIC

Structure (SMILES) | MIC (P. aeruginosa; 24 h) [µg/mL] | MIC (S. pneumoniae; 24 h) [µg/mL] | MIC (A. baumannii; 24 h) [µg/mL] | MIC (K. pneumoniae; 24 h) [µg/mL] | MIC (E. coli; 24 h) [µg/mL] | MIC (E. faecium; 24 h) [µg/mL] | MIC (E. aerogenes; 24 h) [µg/mL] | MIC (S. aureus; 24 h) [µg/mL] | MIC (P. aeruginosa; [1]) [µg/mL] | MIC (S. pneumoniae; [2]) [µg/mL] | MIC (A. baumannii; [3]) [µg/mL] | MIC (K. pneumoniae; [4]) [µg/mL] | MIC (E. coli; [5]) [µg/mL] | MIC (E. faecium; [6]) [µg/mL] | MIC (E. aerogenes; [7]) [µg/mL] | MIC (S. aureus; [8]) [µg/mL]
Cc1ccc(NNC(=O)c2cccc(=O)n2C)cc1 [Ex. 11, 1-Methyl-6-oxo-1,6-dihydropyridine-2-carboxylic acid N′-(4-methylphenyl)-hydrazide] | > 128 | > 128 | 0.5 (≈ 1.94 µM) | > 128 | > 128 | > 128 | > 128 | > 128 |  |  |  |  |  |  |  | 
Cn1c(C(=O)NNc2ccc(F)cc2F)cccc1=O [Ex. 12, 1-Methyl-6-oxo-1,6-dihydropyridine-2-carboxylic acid N′-(2,4-difluorophenyl)-hydrazide] | > 128 | > 128 | 0.25 (≈ 0.895 µM) | > 128 | > 128 | > 128 | > 128 | > 128 |  |  |  |  |  |  |  | 
Cn1c(C(=O)NNc2c(F)cccc2F)cccc1=O [Ex. 13, 1-Methyl-6-oxo-1,6-dihydropyridine-2-carboxylic acid N′-(2,6-difluorophenyl)-hydrazide] | > 128 | > 128 | 0.5 (≈ 1.79 µM) | > 128 | > 128 | > 128 | > 128 | > 128 |  |  |  |  |  |  |  | 
CN(C)C(=O)Cn1c(C(=O)NNc2ccc(F)cc2)cccc1=O [Ex. 14, 1-(2-(Dimethylamino)-2-oxoethyl)-6-oxo-1,6-dihydropyridine-2-carboxylic acid N′-(4-fluorophenyl)-hydrazide] | > 128 | > 128 | 0.25 (≈ 0.752 µM) | > 128 | > 128 | > 128 | > 128 | > 128 |  |  |  |  |  |  |  | 
NC(=O)Cn1c(C(=O)NNc2ccc(F)cc2)cccc1=O [Ex. 15, 1-(2-Amino-2-oxoethyl)-6-oxo-1,6-dihydropyridine-2-carboxylic acid N′-(4-fluorophenyl)-hydrazide] | > 128 | > 128 | 0.5 (≈ 1.64 µM) | > 128 | > 128 | > 128 | > 128 | > 128 |  |  |  |  |  |  |  | 
CCn1cccc(C(=O)NNc2ccc(F)cc2)c1=O [Ex. 16, 1-Ethyl-2-oxo-1,2-dihydropyridine-3-carboxylic acid N′-(4-fluorophenyl)-hydrazide] |  |  |  |  |  |  |  |  | > 128 | > 128 | 0.5 (≈ 1.82 µM) | > 128 | > 128 | > 128 | > 128 | > 128
Cn1cccc(C(=O)NNc2ccc(F)cc2)c1=O [Ex. 17, 1-Methyl-2-oxo-1,2-dihydropyridine-3-carboxylic acid N′-(4-fluorophenyl)-hydrazide] | > 128 | > 128 | 0.5 (≈ 1.91 µM) | > 128 | > 128 | > 128 | > 128 | > 128 |  |  |  |  |  |  |  | 
Cn1ccc(C(=O)NNc2ccc(F)cc2)cc1=O [Ex. 18, 1-Methyl-2-oxo-1,2-dihydropyridine-4-carboxylic acid N′-(4-fluorophenyl)-hydrazide] |  |  |  |  |  |  |  |  | > 128 | > 128 | 0.25 (≈ 0.957 µM) | > 128 | > 128 | > 128 | > 128 | > 128
Cn1cc(C(=O)NNc2ccc(F)cc2)ccc1=O [Ex. 19, 1-Methyl-6-oxo-1,6-dihydropyridine-3-carboxylic acid N′-(4-fluorophenyl)-hydrazide] |  |  |  |  |  |  |  |  | > 128 | > 128 | 0.25 (≈ 0.957 µM) | > 128 | > 128 | > 128 | > 128 | > 128
CN(NC(=O)c1cccc(=O)n1C)c1ccc(F)cc1 [Ex. 20, 1-Methyl-6-oxo-1,6-dihydropyridine-2-carboxylic acid N′-(4-fluorophenyl)-N′-methyl-hydrazide] | > 128 | > 128 | 64 (≈ 232 µM) | > 128 | > 128 | > 128 | > 128 | > 128 |  |  |  |  |  |  |  | 
COc1cc(C(=O)NNc2ccc(F)cc2)n(C)c(=O)c1 [Ex. 21, 4-Methoxy-1-methyl-6-oxo-1,6-dihydropyridine-2-carboxylic acid N′-(4-fluorophenyl)-hydrazide] |  |  |  |  |  |  |  |  | > 128 | > 128 | 0.25 (≈ 0.858 µM) | > 128 | > 128 | > 128 | > 128 | > 128
